Measured values as given in article PMC9414910, “Optimized ^68Ga-Labeled Urea-Based PSMA-Targeted PET Tracers for Prostate Cancer” (Pharmaceuticals, 2022).

Biological target: T1, Recombinant human PSMA (rhPSMA) (Homo sapiens, UniProt Q04609)
T1 construct: purchased R&D systems, Wiesbaden, Germany
Assay: NAALADase assay (enzyme-based assay on rhPSMA)
Format: biochemical
Settings: NAAG substrate, unlabeled ligands, read-out: Ki (PSMA inhibition constant)
Procedure: The partition coefficient of each novel radiotracer was determined using an octanol–water system (v/v = 1:1). The in vitro stability was determined using two systems (PBS and 5% BSA). The Ki value was measured by the NAALADase assay. The 22Rv1 and PC-3 cell lines were used for the cell-binding study and establishment of the tumor-bearing model (detailed information is shown in the Supplementary Materials).
The PSMA-inhibitory activity of novel PSMA ligands was analyzed by performing an enzyme-based assay on rhPSMA [11].
PBS) and reported as log p ± SD.
The in vitro stability of radiotracers was determined by measuring radiochemical purity (RCP) in […] and 5% bovine serum albumin (BSA) at 37 °C at different time intervals (30 min, 60 min, 120 min) using radio-HPLC.
Recombinant human PSMA (rhPSMA, R&D systems, Wiesbaden, Germany) was diluted in assay buffer (50 mM HEPES, 0.1 M NaCl, pH 7.5) to 0.4 μg/mL. […]
250 μL of ortho-phthaldialdehyde solution (OPA, 15 mM, Sigma, Taufkirchen, Germany) was added to each vial and incubated for 3 min at room temperature. 200 μL aliquot of each vial was added into a 96 black well plate and read at excitation and emission wavelengths of 350 and 450 nm using a microplate reader. […] The data were analyzed by the one-site total binding regression algorithm of GraphPad

T1 sequence (Q04609 whole entry): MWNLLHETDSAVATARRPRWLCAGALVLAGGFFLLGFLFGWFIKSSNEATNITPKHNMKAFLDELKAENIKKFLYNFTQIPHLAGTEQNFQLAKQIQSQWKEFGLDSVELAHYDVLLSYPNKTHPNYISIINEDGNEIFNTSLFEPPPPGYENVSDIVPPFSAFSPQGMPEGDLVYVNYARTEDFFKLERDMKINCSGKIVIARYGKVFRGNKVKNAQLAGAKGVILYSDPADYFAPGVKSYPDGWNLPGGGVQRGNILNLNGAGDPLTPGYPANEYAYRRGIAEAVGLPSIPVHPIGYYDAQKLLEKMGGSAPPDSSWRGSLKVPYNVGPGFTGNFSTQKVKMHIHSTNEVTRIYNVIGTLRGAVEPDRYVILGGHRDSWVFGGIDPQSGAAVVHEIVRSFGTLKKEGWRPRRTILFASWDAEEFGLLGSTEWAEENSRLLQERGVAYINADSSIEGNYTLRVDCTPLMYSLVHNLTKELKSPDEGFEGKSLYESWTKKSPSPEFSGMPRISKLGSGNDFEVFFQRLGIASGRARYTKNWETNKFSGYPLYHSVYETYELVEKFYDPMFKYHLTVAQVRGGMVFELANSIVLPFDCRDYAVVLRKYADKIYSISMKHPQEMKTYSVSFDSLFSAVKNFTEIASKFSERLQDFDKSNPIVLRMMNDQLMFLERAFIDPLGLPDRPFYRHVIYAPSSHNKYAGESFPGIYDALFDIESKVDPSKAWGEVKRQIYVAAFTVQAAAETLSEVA

SMILES | Ki
O=C(O)CCC(NC(=O)NC(CCCCNC(=O)C(Cc1cc2ccc3cccc4ccc(c1)c2c34)NC(=O)C1CCC(CNC(=O)CN2CCN(CC(=O)O)CCN(CC(=O)O)CCN(CC(=O)O)CC2)CC1)C(=O)O)C(=O)O (centres unmarked) [PSMA-P] | 42.4 ± 2.11 nM
O=C(O)CC[C@H](NC(=O)N[C@@H](CCCCNC(=O)[C@H](Cc1ccc2ccccc2c1)NC(=O)[C@H]1CC[C@H](CNC(=O)CN2CCN(CC(=O)O)CCN(CC(=O)O)CCN(CC(=O)O)CC2)CC1)C(=O)O)C(=O)O [PSMA-617, reference compound] | 2.89 ± 1.07 nM
